A short description of series [1]: Mammalian cell cytotoxicity, ATP assay (CellTiter-Glo). It counts as cell-based, human. The conditions noted are these: human, Huh-7 cells, ATP assay, 24 h exposure, average of two dose-response experiments. On the procedure:
Huh-7 cells (originating from human hepatocellular carcinoma) were kindly provided by Prof. Ralf Bartenschlager (University of Heidelberg, Heidelberg, Germany). […] The cells were incubated at 37 °C in a humidified atmosphere with 5% CO2. The effect of the most promising compounds on the metabolic activity of Huh-7 hepatocytes was assessed by intracellular ATP quantitation (Promega’s CellTiter-Glo Cell Viability Assay, Madison, WI, USA). In brief, cells were seeded at 20,000 cells/well on white-walled 96-well microplates (ViewPlate, PerkinElmer Inc., Wellesley, MA, USA) and incubated at 37 °C, 5% CO2 and 95% humidity overnight and then exposed to the compounds for 24 h. Following the exposure, cells were washed with 100 µL PBS, and 50 µL of fresh assay media and 50 µL of the CellTiter-Glo reagent were added into the wells. After 2 min of shaking and 10 min incubation at rt, luminometric signal was measured using a Varioskan Flash plate reader (Thermo Fisher Scientific, Vantaa, Finland). […] The IC50 values were calculated by fitting the data into sigmoidal dose-response curves with the Origin software.
In general terms: ATP-based viability assays read luminescence as a measure of living cells.

The test system of series [2] is Staphylococcus aureus (ATCC 25923). Kind of series: Broth microdilution antimicrobial assay, Staphylococcus aureus. Type of series: cell-based. The conditions noted are these: for SI (selectivity index): S. aureus MIC50 vs Huh-7 cytotoxicity IC50; for MIC90 / MIC50: Staphylococcus aureus; for MIC90: ATCC25923, 24 h; for MIC50: ATCC25923, S. aureus ATCC 25923, 24 h, sigmoidal curve fitting. How it is done: (§1) Clinical control strains of Enterococcus faecalis (Gram-positive, ATCC 29212), Staphylococcus aureus (Gram-positive, ATCC 25923), Escherichia coli (Gram-negative, ATCC 25922) and a fungal strain, Candida albicans (ATCC 90028), were obtained from Microbiologics Inc. (St. Cloud, MN, USA) and used for the antimicrobial screening. Bacterial strains were grown on Mueller Hinton II agar (MHA, Becton Dickinson, Franklin Lakes, NJ, USA) […] Mueller Hinton II broth (MHB, Becton Dickinson, Franklin Lakes, NJ, USA) and the Candida strain on Sabouraud dextrose agar (SDA, Becton Dickinson, Franklin Lakes, NJ, USA) plates. Media were prepared in MilliQ water, according to the manufacturer's instructions, and autoclaved at 121 °C for 15 min. […] The Candida strain was grown on SDA plates at 28 °C for 18-24 h and suspended into sterile 0.9% saline for the assay. Antimicrobial assays were performed by the broth microdilution method following the guidelines of the Clinical and Laboratory Standards Institute (CLSI) and European Committee on Antimicrobial Susceptibility Testing (EUCAST). […] The Candida suspension was prepared in sterile 0.9% saline solution, and the suspension was diluted in RPMI-1640 media (with L-glutamine, without NaHCO3 and supplemented with 2% glucose and 0.165 M MOPS, buffered to pH 7; Lonza, Basel, Switzerland) to yield a final inoculum of 2.5 × 10^3 CFU/mL in the assay. Assays were carried out in clear 96-well microtiter plates and initiated by dispensing an equal volume of microbial suspension and sample solution diluted into the assay medium. The plates were incubated for 24 h at 37 °C (for Candida, the incubation was at 28 °C for 48 h) with agitation. […] The antimicrobial activity of the samples was calculated from the absorbance values by comparing to untreated controls and expressed as the percentage inhibition of growth. Reference antibiotics were used as positive controls on every assay plate (see Figure 2 for details). […] MIC50 values were determined from the dose-response results by sigmoidal curve fitting with Origin software (OriginLab, Corp., Wellesley Hills, MA, USA).
For orientation: Broth dilution looks for growth in wells or tubes with falling amounts of substance.

Series [3] concerns Enterococcus faecalis (ATCC 29212). Briefly: Broth microdilution antimicrobial assay, Enterococcus faecalis. The conditions noted are these: for SI (selectivity index): E. faecalis MIC50 vs Huh-7 cytotoxicity IC50; for MIC90 / MIC50: Enterococcus faecalis; for MIC90: ATCC29212, 24 h; for MIC50: ATCC29212, E. faecalis ATCC 29212, 24 h, sigmoidal curve fitting. It counts as cell-based. How it is done: as §1

Molecules are shown by their SMILES. Values after ≈ are worked out from the molar mass of the structure shown.

One may read the melting point as the temperature, or range, at which the solid turns liquid. Usually IC50 stands for the midpoint of a concentration-inhibition curve. Read a high IC50 as a need for much substance. In general, MIC90 refers to an inhibitory concentration at the 90% level, which refers to growth in some studies and to a panel of isolates in others. By MIC50 is commonly meant the lowest concentration that inhibits either 50% of growth or 50% of the strains tested, depending on the study.

`Cl.Nc1nc(-c2cccc(NC(=O)c3cc4cc(OC(F)(F)F)ccc4[nH]3)c2)c[nH]1` [Compound 6g, 2-Amino-4-(3-(5-(trifluoromethoxy)-1H-indole-2-carboxamido)phenyl)-1H-imidazol-3-ium chloride] had a melting point of 255 to 260 °C.

`CC(C)(C)OC(=O)n1cc(-c2cccc(NC(=O)c3cc4cc(F)ccc4[nH]3)c2)nc1N` [Compound 5j, tert-Butyl 2-amino-4-(3-(5-fluoro-1H-indole-2-carboxamido)phenyl)-1H-imidazole-1-carboxylate] had a melting point of 189 to 192 °C.

As to `Cl.Nc1nc(-c2cccc(NC(=O)c3cc4sccc4[nH]3)c2)c[nH]1` [Compound 6k, 4-(3-(4H-Thieno[3,2-b]pyrrole-5-carboxamido)phenyl)-2-amino-1H-imidazol-3-ium chloride], the melting point fell in the range of 198 to 202 °C. This compound had an IC50 at 24 h in series [1] of 53.6 µM. Besides, in series [2], the “SI (selectivity index)” value stood at 2.0, the MIC90 is 100 µM and the MIC50 turned out to be 27.1 µM.

The compound `CC(C)(C)OC(=O)n1cc(-c2cccc(NC(=O)c3cc4cc(O)ccc4[nH]3)c2)nc1N` [Compound 7, tert-Butyl 2-Amino-4-(3-(5-hydroxy-1H-indole-2-carboxamido)phenyl)-1H-imidazole-1-carboxylate] displayed a melting point of 192 to 196 °C. The compound further showed an IC50 at 24 h in series [1] of 94 µM. Moreover, in series [2], the MIC90 turned out to be 100 µM (≈ 43.3 µg/mL) and the MIC50 was 11.6 µM (≈ 5.03 µg/mL).

`CC(C)(C)OC(=O)n1cc(-c2cccc(NC(=O)c3cc4sccc4[nH]3)c2)nc1N` [Compound 5k, tert-Butyl 4-(3-(4H-thieno[3,2-b]pyrrole-5-carboxamido)phenyl)-2-amino-1H-imidazole-1-carboxylate] displayed a melting point of 178 to 180 °C.

In turn, `Cl.Nc1nc(-c2cccc(NC(=O)c3cc4cc(Cl)ccc4[nH]3)c2)c[nH]1` [Compound 6i, 2-Amino-4-(3-(5-chloro-1H-indole-2-carboxamido)phenyl)-1H-imidazol-3-ium chloride] yielded a melting point of 201 to 204 °C. In series [1], this compound showed an IC50 at 24 h of 21.7 µM. In series [2], the “SI (selectivity index)” value came out at 3.0, the MIC90 was determined as 50 µM and the MIC50 was 7.2 µM.

For the compound `CC(C)(C)OC(=O)n1cc(-c2cccc(NC(=O)c3cc4cc(OCc5ccccc5)ccc4[nH]3)c2)nc1N` [Compound 5h, tert-Butyl 2-amino-4-(3-(5-(benzyloxy)-1H-indole-2-carboxamido)phenyl)-1H-imidazole-1-carboxylate], the melting point was 140 to 143 °C.

`Nc1nc(-c2cccc(NCc3ccc[nH]3)c2)cn1Cc1ccccc1` [Compound 16, 4-(3-(((1H-Pyrrol-2-yl)methyl)amino)phenyl)-1-benzyl-1H-imidazol-2-amine] returned a melting point of 165 to 168 °C.

Take `COc1ccc2[nH]c(C(=O)Nc3cccc(-c4cn(C(=O)OC(C)(C)C)c(N)n4)c3)cc2c1` [Compound 5f, tert-Butyl 2-amino-4-(3-(5-methoxy-1H-indole-2-carboxamido)phenyl)-1H-imidazole-1-carboxylate]: the melting point was in the range of 173 to 177 °C.

Turning to `Nc1nc(-c2cccc(NC(=O)c3cc4ccccc4[nH]3)c2)c[nH]1` [Compound 6d], in series [1], half-maximal inhibition (IC50 at 24 h) was put at 42.3 µM. Further, in series [3], the “SI (selectivity index)” value amounted to 1.2, the MIC90 is 50 µM (≈ 15.9 µg/mL) and the MIC50 turned out to be 34 µM (≈ 10.8 µg/mL). In series [2], the “SI (selectivity index)” value is reported as 1.4, the MIC90 worked out at 50 µM (≈ 15.9 µg/mL) and the MIC50 came out at 29.4 µM (≈ 9.33 µg/mL).

For `Cl.Nc1nc(-c2cccc(NC(=O)c3cc4cc(O)ccc4[nH]3)c2)c[nH]1` [Compound 8, 2-Amino-4-(3-(5-hydroxy-1H-indole-2-carboxamido)phenyl)-1H-imidazol-3-ium chloride], the melting point is 248 to 252 °C. This compound also had an IC50 at 24 h in series [1] greater than 100 µM. For the same compound, in series [2], the “SI (selectivity index)” value is listed as greater than 2.5, the MIC90 came out at 100 µM and the MIC50 amounted to 40.5 µM.

Turning to `CC(C)(C)OC(=O)n1cc(-c2cccc(NC(=O)c3cc4cc(OC(F)(F)F)ccc4[nH]3)c2)nc1N` [Compound 5g, tert-Butyl 2-amino-4-(3-(5-(trifluoromethoxy)-1H-indole-2-carboxamido)phenyl)-1H-imidazole-1-carboxylate], the melting point lay within 185 to 187 °C.

`Nc1nc(-c2cccc(NC(=O)c3ccc[nH]3)c2)cn1Cc1ccccc1` [Compound 15, N-(3-(2-Amino-1-benzyl-1H-imidazol-4-yl)phenyl)-1H-pyrrole-2-carboxamide] displayed a melting point of 229 to 232 °C.

Consider `Cl.Nc1nc(-c2cccc(NC(=O)c3cc4cc(F)ccc4[nH]3)c2)c[nH]1` [Compound 6j, 2-Amino-4-(3-(5-fluoro-1H-indole-2-carboxamido)phenyl)-1H-imidazol-3-ium chloride], for which the melting point lay within 202 to 205 °C. In series [1], this compound showed an IC50 at 24 h of 19.8 µM. Moreover, in series [3], the “SI (selectivity index)” value is recorded as 0.7, the MIC90 turned out to be 100 µM and the MIC50 stood at 27.3 µM. Further, in series [2], the “SI (selectivity index)” value came to 0.9, the MIC90 amounted to 50 µM and the MIC50 worked out at 22.1 µM.

For `COc1ccc2[nH]c(C(=O)Nc3cccc(-c4c[nH]c(N)n4)c3)cc2c1.Cl` [Compound 6f, 2-Amino-4-(3-(5-methoxy-1H-indole-2-carboxamido)phenyl)-1H-imidazol-3-ium chloride], the melting point fell in the range of 237 to 241 °C. The IC50 at 24 h in series [1] was 32.2 µM. For the same compound, in series [2], the “SI (selectivity index)” value is recorded as 2.7, the MIC90 was 50 µM and the MIC50 amounted to 11.9 µM.

`CNc1nc(-c2cccc(NC(=O)c3cc4ccccc4[nH]3)c2)c[nH]1` [Compound 6l]: half-maximal inhibition in series [1] (IC50 at 24 h) required 52.3 µM. In series [3], the “SI (selectivity index)” value is 1.0, the MIC90 is 100 µM (≈ 33.1 µg/mL) and the MIC50 was 54.2 µM (≈ 18 µg/mL). Besides, in series [2], the “SI (selectivity index)” value came out at 4.9, the MIC90 is 75 µM (≈ 24.9 µg/mL) and the MIC50 came out at 10.8 µM (≈ 3.58 µg/mL).

Source of the values: paper PMC3944524, “Antimicrobial Activity of the Marine Alkaloids, Clathrodin and Oroidin, and Their Synthetic Analogues” (Marine Drugs, 2014).
